Laboratory results from patent US10058618B2, “PAK1-blocking 1,2,3-triazolyl esters” (priority 2016, dated 2018).
pIC50: −log10 of the molar value. Read-outs that look alike come from different tables or passages of the source. Each block holds one molecule with its values, some of them ahead of it.

Assays:
melanoma (B16F10) cells [1] = experiment: Melanin content assay (PAK1-dependent melanogenesis), B16F10 cells; type: cell-based, murine; details: alpha-MSH 100 nM stimulated; read-out: IC50 against the PAK1-dependent melanogenesis of melanoma (B16F10) cells
Protocol: A. Cell line: Murine melanoma (B16F10) cells.
B. Cell seeding in 96 well plate: In culture medium D-MEM supplemented with 10% […] FBS (fetal bovine serum) and 1% penicillin/streptomycin (10,000 U/mL and 100 μg/mL). 2×10^4 cells were seeded in each well of 96 well plate in the medium at 37° C. for 24 hrs in a humidified atmosphere containing 5% CO2.
C. Inhibitor Stocks in DMSO (100 uM).
E. Melanin content Assay (4): The assay was performed as previously described. Cells were seeded in a 96-well plate at a density 5×10^4 cells/well in culture medium containing D-MEM supplemented with 10% FBS, 1% penicillin/streptomycin, and cultured for 24 hrs. Then, the cells were treated with a melanogenic stimulating hormone called α-MSH (100 nM), and treated with one of tested compounds for 48 hrs. After the medium was removed, cells were dissolved in 100 μL of 1 N NaOH. The mixture was heated at 90° C. for 1 hr, and the melanin content was estimated by reading the absorbance at 405 nm.

[2] = test system: A549 human lung cancer cells; experiment: Trypan Blue cell viability/growth assay, A549 cells; type: cell-based; details: for Potentiation of anti-cancer activity by esterization: ester vs original acid; for fold more potent than original acid, growth of A549 cells: ester vs original acid (ARC, CA or Ketorolac)
Protocol: (§1) A. Cell Lines: Human lung cancer (A549) cells carrying an oncogenic K-RAS mutant or murine melanoma (B16F10) cells
(§2) B. Cell seeding in 96 well plate: In culture medium D-MEM with or without 10% fetal bovine serum.
(§3) C. Inhibitor Stocks in DMSO (100 mM)
(§4) D. Trypan Blue Assay for Cell Viability/Growth (4): The most commonly used MTT assay for cell viability/growth is not feasible for cells treated with triazolyl derivatives, mainly because these compounds are reduced by mitochondrial reductase in viable cells, just like MTT, and converted to a purple compound which would clearly interfere with the colorimetry on which MTT assay depends. Thus, a more classic method called Trypan Blue exclusion assay should be used for determining cell viability/growth of cells treated with all triazolyl derivatives. In this assay, only dead cells are stained with Trypan Blue, while viable cells exclude this blue dye.
(§5) The assay was conducted as previously described. Briefly, A549 or B16F10 cells were seeded at 2×10^4 cells/well in 96 well plate for 24 hrs in the above medium, and then treated with one of the tested compounds in the same medium for 96 hrs. Cell were detached from the plate by a protease called accutase, and stained with Trypan blue, and the number of unstained (viable) cells was counted in a hemocytometer.

PAK1 = molecular target: T1, PAK1 (Homo sapiens, UniProt Q13153); experiment: Anti-PAK1 activity in cell culture, Macaroni-Western (IP) ATP-Glo kinase assay; type: cell-based
T1 construct: endogenous in cells; host or cells: A549 human lung cancer cells
T1 sequence (Q13153 whole entry): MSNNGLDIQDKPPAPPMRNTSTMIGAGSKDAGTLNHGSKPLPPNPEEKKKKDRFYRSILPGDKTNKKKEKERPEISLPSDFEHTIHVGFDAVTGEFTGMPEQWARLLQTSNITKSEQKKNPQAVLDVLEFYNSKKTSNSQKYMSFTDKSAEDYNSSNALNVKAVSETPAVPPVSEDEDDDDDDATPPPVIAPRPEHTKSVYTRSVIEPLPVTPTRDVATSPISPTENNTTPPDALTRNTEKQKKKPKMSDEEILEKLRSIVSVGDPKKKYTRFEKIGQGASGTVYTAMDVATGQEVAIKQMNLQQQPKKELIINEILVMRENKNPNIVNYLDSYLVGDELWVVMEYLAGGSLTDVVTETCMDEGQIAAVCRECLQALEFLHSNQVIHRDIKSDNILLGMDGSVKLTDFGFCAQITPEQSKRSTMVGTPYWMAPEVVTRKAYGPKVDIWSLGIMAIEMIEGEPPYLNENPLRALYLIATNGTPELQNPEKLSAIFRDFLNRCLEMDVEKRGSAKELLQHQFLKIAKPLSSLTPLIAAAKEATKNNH
Protocol: A. Cell line: Human lung cancer (A549) cells.
B. Cell seeding in 6-well plate with the culture medium (D-MEM).
C. Inhibitor Stocks in DMSO (100 mM).
D. “Macaroni-western” (IP) ATP-Glo kinase assay: The kinase activity of PAK1 in A549 (or B16F100 cells was measured by a method called “Macaroni-Western” (IP) ATP-Glo kinase assay. Briefly, cells (2×10^5 cells/mL) were pre-cultured on 6-well plate for 24 hrs in the medium. Then cells were treated with a test compound in the same medium for additional 24 hrs. Cells were disrupted by lysis buffer containing 50 mM Tris-HCl pH 7.5 and 150 mM NaCl and 1% Triton-X. For the immunoprecipitation (IP) of PAK1, the cleared cell lysates were incubated with anti-PAK1 IgG (1:50 dilution) and protein A-agarose beads for 1-2 hrs in cold room with continuous shaking by a rotary mixer (Nissin, Suginami-ku, Tokyo, Japan). The resultant IP (PAK1) from each lysate was incubated with ATP-Glo kinase assay kit (Promega) in the presence of ATP and MBP (myelin basic protein) for 1 hr at 37° C., and the remaining ATP level was measured by the ATP-dependent Luciferin-Luciferase reaction which eventually generates a luminescence. The final suspension was centrifuged, and the supernatant was transferred to 96-well plate for reading. Luminescence was recorded by MTP-880Lab microplate reader (Corona, Hitachinaka-ku, Ibaraki, Japan) with an integration time of 0.5 s per well.

EMT6 breast cancer cells = experiment: Cell-permeability (intracellular uptake) assay by HPLC; type: in vitro ADME; details: for fold more cell-permeable than original acid: 100 uM, uptake during first 1 hr, lower bound
Protocol: For measuring the uptake of both original acids and their esters into cells, a drug-resistant breast cancer cell line (EMT6) was chosen, as it survives the treatment with either acids or their esters at 100 uM for 24 hrs. The uptake of each compound (100 uM) into 1×10^5 cells mainly during the first 1 hr was quantitated by separation of either original acids or their esters taken by cells through HPLC column chromatography, and the amount of each compound was estimated by photometry at the wavelength 322 nm.

[3] = test system: Human follicle dermal papilla (HFDP) cells; experiment: Hair cell growth promoting (anti-alopecia) Trypan Blue assay, HFDP cells; type: cell-based
Protocol: A. Cell line: Human follicle dermal papilla (HFDP) cells.
B. Cell seeding in 96 well plate: In culture medium D-MEM medium containing 50 mL of papilla cell growth medium (PCGM), 0.5 mL of fetal calf serum (FSC), 0.5 mL of BPE, 0.25 mL of Cyp, and 0.25 mL of ITT in 51.5 mL total volume.
C. Inhibitor Stocks in DMSO (100 μM).
D. Trypan Blue assay for cell viability/growth (4): HFDP cells were collected and diluted in medium containing Dulbecco's modified minimum essential medium (D-MEM) and 10% fetal bovine serum (FBS) at cell density of 1×10^4 cell/mL. Then, 200 μL of cell suspension (2,000 cells/well) was transferred into each well of collagen-coated 96 well plate, and cells were incubated for 37° C., under 5% CO2 for 3 days. The medium was removed, and 200 μL of samples prepared in D-MEM only was added. After 4 days incubation, cell were detached from the plate by a protease called accutase, and stained with Trypan blue, and the number of unstained (viable) cells was counted in a hemocytometer.

melanoma (B16F10) cells [4] = experiment: Trypan Blue cell viability/growth assay, B16F10 cells; type: cell-based, murine
Protocol: as §1, §2, §3, §4, §5

recombinant human COX-2 = molecular target: T2, recombinant human COX-2 (Homo sapiens, UniProt P35354); experiment: In vitro anti-COX-2 activity; type: biochemical
T2 sequence (P35354 18-604): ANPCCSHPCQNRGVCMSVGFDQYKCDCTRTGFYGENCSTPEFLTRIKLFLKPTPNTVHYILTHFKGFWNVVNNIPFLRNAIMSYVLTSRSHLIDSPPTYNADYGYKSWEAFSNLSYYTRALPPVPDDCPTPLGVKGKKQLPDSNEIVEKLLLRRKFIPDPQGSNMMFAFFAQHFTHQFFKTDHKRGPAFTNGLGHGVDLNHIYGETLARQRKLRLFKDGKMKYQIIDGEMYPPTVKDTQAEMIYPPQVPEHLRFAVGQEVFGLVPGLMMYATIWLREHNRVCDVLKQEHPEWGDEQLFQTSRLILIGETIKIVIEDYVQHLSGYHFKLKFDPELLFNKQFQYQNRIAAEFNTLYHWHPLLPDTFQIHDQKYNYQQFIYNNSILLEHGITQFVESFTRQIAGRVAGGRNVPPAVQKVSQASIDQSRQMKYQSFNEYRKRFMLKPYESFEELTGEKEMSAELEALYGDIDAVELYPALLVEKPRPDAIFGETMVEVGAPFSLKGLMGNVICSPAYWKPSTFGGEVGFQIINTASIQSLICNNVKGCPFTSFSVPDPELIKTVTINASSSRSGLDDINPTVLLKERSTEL
Protocol: The effect of Ketorolac and PRC-15K (both in racemic form) on COX-2 was assayed in vitro, essentially according to the procedure previously published (5). Briefly, the recombinant human COX-2 was treated with either Ketorolac or PRC-15K at concentrations ranging 5-200 nM for 2 or 5 min (depending on the chemical nature of the test compounds) at room temperature in the presence of arachidonic acid, to measure the remaining COX-2 activity at 590 nm. The COX-2 activity without these test chemicals was used as the negative control for calculating their anti-COX-2 activity.

[5] = ester vs parent acid (CA or UA); cited from earlier work
[6] = 96 hrs treatment, Trypan Blue exclusion, read-out: IC50 against the growth of A549 human lung cancer cells
[7] = Homo sapiens, growth of A459 lung cancer cell line (so in the source), read-out: IC50 of Original Acids

pIC50 (melanoma (B16F10) cells [1]): 6.60
pIC50 [2, 6]: 6.60
anti-PAK1 activity in cell culture, inhibition (PAK1; at 1 mM): around 45%
fold more cell-permeable than original acid (EMT6 breast cancer cells): at least 8 fold
SMILES: COc1ccccc1-n1cc(COC(=O)/C=C/c2cc(CC=C(C)C)c(O)c(CC=C(C)C)c2)nn1 [PRC-15A]
Potentiation of anti-cancer activity by esterization [2]: (100 fold)
fold more potent than original acid, growth of A549 cells [2]: 100 fold
ED for the growth of human hair (HFDP) cells ([3]; growth promotion): 20 nM
fold more potent than ARC, growth of HFDP cells ([3]; vs ARC): 1000 fold

pIC50 [2, 7]: 4.60
SMILES: CC(C)=CCc1cc(C=CC(=O)O)cc(CC=C(C)C)c1O [ARC, 3,5-diprenyl-4-hydroxycinnamic acid, reference compound]

Second part, the molecule before the results:

SMILES: COc1ccccc1-n1cc(COC(=O)/C=C/c2ccc(O)c(O)c2)nn1 [PRC-15C]
pIC50 (melanoma (B16F10) cells [1]): 6.65
pIC50 [2, 6]: 6.65
Potentiation of anti-cancer activity by esterization [2]: (>400 fold)
fold more potent than original acid, growth of A549 cells [2]: over 400 fold
anti-PAK1 activity in cell culture, inhibition (PAK1; at 1 μM): around 35%
fold more cell-permeable than original acid (EMT6 breast cancer cells): at least 20 fold
fold more cell-permeable than original acid, probable upper estimate (EMT6 breast cancer cells; 'probably up to'): up to 70 fold

SMILES: O=C(c1ccccc1)c1ccc2n1CCC2C(=O)O (racemic) [Ketorolac, 5-benzoyl-2,3-dihydro-1H-pyrrolizine-1-carboxylic acid, reference compound]
pIC50 ([2]; Homo sapiens, A549, racemic mixture, our unpublished observation, read-out: IC50 against the growth of human cancer cells): 4.89
pIC50 [2, 7]: 4.89

SMILES: COc1ccccc1-n1cc(COC(=O)C2CCn3c(C(=O)c4ccccc4)ccc32)nn1 (racemic) [PRC-15K]
pIC50 ([2]; A549, 50/50 racemic mixture, growth of human cancer cells, read-out: IC50): ~7.62
pIC50 ([2]; Homo sapiens, A549, 96 hrs treatment, Trypan Blue exclusion, read-out: IC50 against the growth of A549 human lung cancer cells): 7.62
pIC50 ([2]; Homo sapiens, growth of A459 lung cancer cell line (so in the source), read-out: IC50 of Esters): 7.62
Potentiation of anti-cancer activity by esterization [2]: (>500 fold)
fold more potent than original acid, growth of A549 cells [2]: over 500 fold
times potent as much as compound 7 ([2]; vs racemic ketorolac): more than 500 times
pIC50 (melanoma (B16F10) cells [4]; Mus musculus, B16-F10, read-out: IC50 against the PAK1-independent growth of melanoma (B16F10) cells): 8.30
fold more potent than Ketorolac, growth of B16F10 cells (melanoma (B16F10) cells [4]; vs Ketorolac): over 6000 fold
inhibition at 0.07 µM (PAK1; at 70 nM): ~50%
fold more potent than Ketorolac, anti-PAK1 activity in cell culture (PAK1; vs Ketorolac): over 30 fold
pIC50 (recombinant human COX-2; in vitro, racemic form, read-out: IC50 against human COX-2): 8.22
fold more potent than Ketorolac, anti-COX-2 (recombinant human COX-2; vs Ketorolac): over 20 fold
fold more cell-permeable than original acid (EMT6 breast cancer cells): at least 10 fold

SMILES: O=C(/C=C/c1ccc(O)c(O)c1)OCCc1ccccc1 [CAPE, caffeic acid phenethyl ester]
fold more potent (cell-permeable) than parent acid [5]: 10 fold

SMILES: O=C(O)/C=C/c1ccc(O)c(O)c1 [CA, caffeic acid, reference compound]
pIC50 [2, 7]: 4.00
